In brackets after ≈: the same amount, converted by molar mass. Entries after “also recorded” stand apart in the source; their conditions may differ. Where two headings read alike, the source gives them in different places.
How the values were obtained:
Type in all cases: cell-based
[1] = tested on: Streptococcus mutans OMZ 176; test: Antibacterial activity (MIC, growth in BHI medium); parameters: key to Antibacterial activity (growth): -: grow; ±: slightly grow; +: not grow
Description: (§1) To a test tube was charged 3.8 ml of Brain Heart Infusion (BHI) medium, and 100 μl of a sample solution containing oleanolic, ursolic or glycyrrhetic acid and 100 μl of pre-incubated culture of bacterium selected from those listed below were added thereto. The mixture was incubated at 37° C. and then allowed to stand over night. The extent of the growth of bacterium was observed after two or five days.
Streptococcus mutans OMZ 176

[2] = tested on: S. mutans OMZ 176 (serotype d); test: microbe, parasite or virus in culture; settings: for minimal effective concentration / inhibition at 10 µg/mL / inhibition at 20 µg/mL / inhibition at 30 µg/mL / inhibition at 50 µg/mL / inhibition at 100 µg/mL: Streptococcus mutans; for minimal effective concentration: 20 h, read-out: concentration at which adherence of the bacterial cells is inhibited; for inhibition at 10 µg/mL / inhibition at 20 µg/mL / inhibition at 30 µg/mL / inhibition at 50 µg/mL / inhibition at 100 µg/mL: read-out: Adherence-inhibiting activity (AIP)
Description: The adherence-inhibiting activity of the triterpenes of the formula (I) was measured using an inner wall of a test tube in place of the surface of a tooth.
To 2.9 ml of BHI medium containing 5% sucrose in a test tube (i) are added 30 μl of a sample solution prepared by dissolving a compound of: the formula (I) in H2 O or dimethylsulfoxide (DMSO) and 100 μl of culture medium containing S. mutans OMZ 176 (serotype d) which was preincuvated at 37° C. for 24 hours in BHI medium, and the mixture is incubated at 37° C. for 20 hours, with the test tube being maintained at a slant of 30°. The test tube is revolved gently two or three times and the supernatant is transferred to another test tube (ii). To the first test tube (i) is added 3 ml of 50 mM phosphate buffer (pH 7.5), and the test tube is gently revolved two or three times. The resultant supernatant is transferred to the third test tube (iii). The test tubes (ii) and (iii) are each centrifuged and respective supernatants are discarded. To each of the test tubes (i), (ii) and (iii) is added 3 ml of 0.5M NaOH, and the test tubes are shaken to suspend bacterial cells. Absorbance of the resulting suspension is measured at 660 nm. The absorbances obtained with respect to the test tube (i), (ii) and (iii) are represented by Ab(i), Ab(ii) and Ab(iii), respectively. Ab(i) reflects the amount of the bacterial cells adhered to the wall of the test tube and Ab(ii) and Ab(iii) correspond to the amount of the bacterial cells not adhered to the wall.
The same procedure is repeated using 30 μl of distilled water or DMSO in place of the sample solution to obtain a control. The absorbance of the control is represented by Ab(Cont.).
Adherence percentage of bacteria is calculated from the following equation. [formula]
Adherence inhibitory percentage (AIP) is calculated using the adherence percentage according to the following equation. [formula]
The magnitude of adherence-inhibiting activity of each of the samples is shown, in Table 3, by the use of the following symbols: […]

[3] = tested on: bacterial cells; test: Adherence of bacterial cells to the surface of an extracted tooth; settings: extracted tooth suspended in a culture medium containing sucrose
[4] = tested on: Streptococcus salivarius ATCC 9222; test: Antibacterial activity (MIC, growth in BHI medium); parameters: key to Antibacterial activity (growth): -: grow; ±: slightly grow; +: not grow
Description: as §1, with “days. The MIC value was determined for each sample and summarized in Table 2. |Streptococcus salivarius ATCC 9222” for “days.”

[5] = tested on: Bacillus megaterium QM B1551; test: Antibacterial activity (MIC, growth in BHI medium); parameters: key to Antibacterial activity (growth): -: grow; ±: slightly grow; +: not grow
Description: as §1, with “days. The MIC value was determined for each sample and summarized in Table 2. |Bacillus megaterium QM B1551” for “days.”

[6] = text statement, listed as pomolic acid

CC1(C)CC[C@]2(C(=O)O)CC[C@]3(C)C(=CC[C@@H]4[C@@]5(C)CC[C@H](O)[C@@](C)(CO)[C@@H]5CC[C@]43C)[C@@H]2C1 [Hederagenin]
antibacterial activity to S. mutans (in words) [1]: almost the same antibacterial activity as oleanolic acid; also recorded: have both of the adherence-inhibiting activity and the selective antibacterial activity to S. mutans; also recorded: have both activities | antibacterial activity at 10 μg/ml (in words) ([1]; 10 μg/ml): ineffective for exhibiting antibacterial activity | adherence-inhibiting activity (in words) [2]: have both of the adherence-inhibiting activity and the selective antibacterial activity to S. mutans; also recorded: have both activities | minimal effective concentration [2]: 10 µg/mL | inhibition at 10 µg/mL [2]: < 25% | inhibition at 20 µg/mL [2]: > 50% | inhibition at 30 µg/mL [2]: > 50% | inhibition at 50 µg/mL [2]: > 50% | inhibition at 100 µg/mL [2]: > 50% | adherence of bacterial cells to the surface of an extracted tooth [3]: completely inhibited

C[C@@H]1CC[C@]2(C(=O)O)CC[C@]3(C)C(=CC[C@@H]4[C@@]5(C)CC[C@H](O)C(C)(C)[C@@H]5CC[C@]43C)[C@@H]2[C@]1(C)O [Pomolic acid]
antibacterial activity at 10 μg/ml (in words) ([1]; 10 μg/ml): ineffective for exhibiting antibacterial activity | antibacterial activity to S. mutans (in words) ([1]; text statement): almost the same antibacterial activity as oleanolic acid | antibacterial activity to S. mutans (in words) [1, 6]: have both of the adherence-inhibiting activity and the selective antibacterial activity to S. mutans; also recorded: have both activities | minimal effective concentration [2]: 10 µg/mL | inhibition at 10 µg/mL [2]: < 25% | inhibition at 20 µg/mL [2]: > 50% | inhibition at 30 µg/mL [2]: > 50% | inhibition at 50 µg/mL [2]: > 50% | inhibition at 100 µg/mL [2]: > 50% | adherence-inhibiting activity (in words) [2, 6]: have both of the adherence-inhibiting activity and the selective antibacterial activity to S. mutans; also recorded: have both activities | adherence of bacterial cells to the surface of an extracted tooth [3]: completely inhibited

C[C@H]1[C@H](C)CC[C@]2(C(=O)O)CC[C@]3(C)C(=CC[C@@H]4[C@@]5(C)CC[C@H](O)C(C)(C)[C@@H]5CC[C@]43C)[C@H]12 [Ursolic acid]
antibacterial activity to S. mutans (in words) [1]: also exhibit the selective activity on S. mutans, although the magnitude of the activity is each less than that of glycyrrthetic acid; also recorded: have both of the adherence-inhibiting activity and the selective antibacterial activity to S. mutans; also recorded: have both activities | Antibacterial activity (growth) ([1]; 10 μg/ml): - | antibacterial activity at 10 μg/ml (in words) ([1]; 10 μg/ml): ineffective for exhibiting antibacterial activity | Antibacterial activity (growth) ([1]; 25 μg/ml): - | Antibacterial activity (growth) ([1]; 50 μg/ml): + | Antibacterial activity (growth) ([1]; 100 μg/ml): + | Antibacterial activity (growth) ([1]; 200 μg/ml): + | Antibacterial activity (growth) ([1]; 400 μg/ml): + | MIC ([1]; Streptococcus mutans, OMZ176, Streptococcus mutans OMZ 176, BHI, 37° C., read-out: MIC (minimum inhibitory concentration)): 25 µg/mL (≈ 54.7 µM) | Antibacterial activity (growth) ([4]; 10 μg/ml): - | Antibacterial activity (growth) ([4]; 25 μg/ml): - | Antibacterial activity (growth) ([4]; 50 μg/ml): + | Antibacterial activity (growth) ([4]; 100 μg/ml): + | Antibacterial activity (growth) ([4]; 200 μg/ml): + | Antibacterial activity (growth) ([4]; 400 μg/ml): + | MIC ([4]; ATCC9222, Streptococcus salivarius, BHI, 37° C., read-out: MIC (minimum inhibitory concentration)): 25 µg/mL (≈ 54.7 µM) | Antibacterial activity (growth) ([5]; 10 μg/ml): - | Antibacterial activity (growth) ([5]; 25 μg/ml): - | Antibacterial activity (growth) ([5]; 50 μg/ml): - | Antibacterial activity (growth) ([5]; 100 μg/ml): - | Antibacterial activity (growth) ([5]; 200 μg/ml): - | Antibacterial activity (growth) ([5]; 400 μg/ml): - | MIC ([5]; Priestia megaterium, QMB1551, Bacillus megaterium, BHI, 37° C., read-out: MIC (minimum inhibitory concentration)): > 200 µg/mL | adherence-inhibiting activity (in words) [2]: have both of the adherence-inhibiting activity and the selective antibacterial activity to S. mutans; also recorded: have both activities | minimal effective concentration [2]: 10 µg/mL | inhibition at 10 µg/mL [2]: > 50% | inhibition at 20 µg/mL [2]: > 50% | inhibition at 30 µg/mL [2]: > 50% | inhibition at 50 µg/mL [2]: > 50% | inhibition at 100 µg/mL [2]: > 50% | adherence of bacterial cells to the surface of an extracted tooth [3]: completely inhibited

Source: patent US4606911A, “Pharmaceutical composition for the prevention of dental caries” (Rohto Pharmaceutical Co. Ltd., priority 1984, dated 1986)
